In test [1] the test system is maize seeds. As to the kind of experiment: Germination of treated maize seeds and harvestability of tissue at timepoints (Maize Trial 1). The note with it: for non-harvestable seeds (did not germinate): 120-hour timepoint, subgroup 4, radicle and coleoptile. The class given is in vivo. Here is the method: This study applied 5 different PGRs to separate treatment groups each comprised of 30 maize seeds. A negative control group of 30 maize seeds was exposed to a control solution devoid of any PGRs. The ability to germinate the seeds and harvest the desired tissues from the seeds and nascent seedlings at 5 timepoints was evaluated, and the total RNA extracted, sequenced and analyzed. […] Ten plates were prepared for each of the 6 groups evaluated (5 treatment groups+1 control group). Each test group included 5 subgroups, each subgroup corresponding to 1 of the 5 harvesting timepoints. Replicates of each subgroup were prepared, such that each of the 5 subgroups of seeds occupied two plates. Group 1 served as the untreated negative control group. Group 2 was treated with a first PGR composition (“PGR 1”) that includes active components containing 0.09 wt % cytokinin (kinetin), 0.03 wt % GA, and 0.045 wt % IBA. Group 3 was treated with kinetin. Group 4 was treated with GA. Group 5 was treated with IBA. Group 6 was treated with a second PGR composition (“PGR 2”) that includes active components containing 0.11 wt % CPPA and 0.01 wt % cytokinin (kinetin). Stock solutions of the treatments were prepared, each including equal amounts of propylene glycol, which was used to dissolve the kinetin. The amount of each treatment substance applied per seed varied between, but not within, the treatment groups. As shown below in Table 1, the control group was untreated. Each seed within group 2 was treated with 1.2 μL of the PGR 1. Each seed within group 3 was treated with 1.14 μg of kinetin. Each seed within group 4 was treated with 0.572 μg of GA. Each seed within group 5 was treated with 0.381 μg of IBA. Each seed within group 6 was treated with 1.7 μL of PGR 2. The seeds in each group were incubated at 15.5° C. and harvested at 5 timepoints. The first subgroup within each group was harvested after 12 hours of incubation, the second subgroup after 24 hours, the third subgroup after 96 hours, the fourth subgroup after 120 hours, and the fifth subgroup after 144 hours. […]

Test [2] has as its system maize seeds. As to the kind of experiment: Whole-genome RNA sequencing of tissue from PGR-treated germinating maize seeds/seedlings, gene expression relative to control. The class given is in vivo. The note with it: radicle, 144-hour timepoint. Here is the method: This study applied 5 different PGRs to separate treatment groups each comprised of 30 maize seeds. A negative control group of 30 maize seeds was exposed to a control solution devoid of any PGRs. The ability to germinate the seeds and harvest the desired tissues from the seeds and nascent seedlings at 5 timepoints was evaluated, and the total RNA extracted, sequenced and analyzed. […] Ten plates were prepared for each of the 6 groups evaluated (5 treatment groups+1 control group). Each test group included 5 subgroups, each subgroup corresponding to 1 of the 5 harvesting timepoints. Replicates of each subgroup were prepared, such that each of the 5 subgroups of seeds occupied two plates. Group 1 served as the untreated negative control group. Group 2 was treated with a first PGR composition (“PGR 1”) that includes active components containing 0.09 wt % cytokinin (kinetin), 0.03 wt % GA, and 0.045 wt % IBA. Group 3 was treated with kinetin. Group 4 was treated with GA. Group 5 was treated with IBA. […] Expression data for 39,460 different genes was obtained and analyzed to identify which genes were differentially expressed relative to control samples at the timepoints and tissue types sampled and in response to the different treatments applied to each test group.

`O=C(O)CCCc1c[nH]c2ccccc12` [IBA, indole-3-butyric acid]: the “seeds that did not germinate” value with maize seeds [1] (144-hour timepoint, subgroup 5) was found to be 1 seeds. Also, the “expression of gene coding for phosphopantothenate-cysteine ligase protein” value in the test on maize seeds [2] is “increased expression”. Take `C=C1C[C@]23C[C@@]1(O)CC[C@H]2[C@@]12C=C[C@H](O)[C@@](C)(C(=O)O1)[C@H]2[C@@H]3C(=O)O` [group 4, gibberellic acid]: in the test on maize seeds [1], the “non-harvestable seeds (did not germinate)” value stood at 1 seeds. With `c1coc(CNc2ncnc3[nH]cnc23)c1` [group 3, kinetin], the “non-harvestable seeds (did not germinate)” value with maize seeds [1] is 2 seeds.

These data come from patent US12180466B2, “Plant tissue collection, RNA extraction and genetic analysis” (WINFIELD SOLUTIONS, LLC, priority 2018, dated 2024).
